Data as given in patent US7585852B2, “Cobalamine derivatives useful for diagnosis and treatment of abnormal cellular proliferation” (Solidago AG, priority 2003, dated 2009).
“Also recorded” adds a separate entry of the source.

Key:
transcobalamin II (TCII) = assay: Gel-shift (gel filtration) assay of radiolabeled cyanocobalamin derivatives with transport protein TC II; type: binding, rabbit; settings: for Binding to TCII (in words): gel shift assay; for TC II reactivity: radioactive labeled derivative; for Gel filtration peak of the derivative mixed with TCII: Superdex 75 column, free derivative elutes at 1.5 kDa
Experimental: To test the binding affinity of cobalamin (Cbl) derivatives to TCII, an in vitro test is carried out with partially purified TCII obtained from the blood of rabbits. Recombinant TCII produced with an E. coli expression system can also be used as a substrate.
TC II is purified by affinity chromatography on a cyanocobalamin-agarose matrix (Sigma), The gel (5 ml) is first washed with 200 ml 50 mM Tris/1 M NaCl, pH 8.0, afterwards with 200 ml 0.1 M glycine/0.1 M glucose/1 M NaCl pH 10, and again with 200 ml 50 mM Tris/1 M NaCl. […] Bound TC II is eluted with 20 ml 4.0 Mguanidine HCl/50 mM Tris pH 8.0, and in a second step with 7.5 M guanidine HCl/50 mM Tris pH 8.0. Most of the bound TC II elutes already with 4 M guanidine HCl. Probes are dialyzed extensively against H2O for 2 days at 4° C. Typical yields are 5-30 nmol/l which translates into 7.5-10 μg of TC II (MW: 50 kDa) per rabbit.
Transcobalamin II cDNA is expressed in E. coli strain FA113, a K12 derivative with double knock-out in trxB and gor genes, where the cytoplasm forms an oxidizing environment and allows disulfide formation. The transcobalamin II protein contains a PreScission protease site followed by an N-terminal histidine tag. The protein is isolated from soluble fractions of E. coli extracts using nickel chelating sepharose. Cyanocobalamin is removed from the transcobalamin II bound to the chelating column with 8 M urea, and the transcobalamin II is afterwards released by imidazole. In some of the preparations, the His-tag is removed by a specific protease.
(§1) The interaction of radiolabeled (^57Co, ^99mTc, ^188Re, ^111In) cyanocobalamin derivatives is measured by gel-shift assay. Radiolabeled cyanocobalamin (0.05 ng to 1 ng) is allowed to react with an excess of transport proteins for 15 min at room temperature. This mixture is applied to a gel-filtration column (Superdex75, Amersham Biosciencies) in the running buffer PBS and 0.1% Tween 20. Biologically active cyanocobalamin, which binds to transport proteins, shifts from a molecular weight of about 1.4 kDa to 40-70 kDa, depending on the transport protein. Titration of the binding capacity of the transport proteins is done with ^57Co-cyanocobalamin (ICN Biomedicals GmbH, Germany; 10 μCi/50 ng).

[1] = Biodistribution of radiolabeled cyanocobalamin derivatives in tumor bearing mice; type: in vivo, balb/c mice; settings: for Tissue distribution: Blood / Tissue distribution: Kidney / Tissue distribution: Tumor / Tissue distribution: Liver: 24 h after i.v. injection of radioactive labeled derivative, tumor bearing mice (melanoma B16-F10), vitamin-free diet, figures use percent of injected radioactivity per gram of tissue; for Tissue distribution: Liver: in %ID/g; for Accumulation in tumor relative to blood / Accumulation in tumor relative to kidney and liver: from Table 1, 24 h after i.v. injection in mice
Experimental: For in vivo studies and for binding studies to the transport vectors, very high specific activity was demanded. Therefore, 100 μl of the labeled solution were injected to an analytical HPLC system to separate the hot from the cold vitamin derivative. The eluate fraction with the highest gamma activity (ca. 300 μl) was diluted with normal saline to a concentration of 10 μCi per animal before i.v. injection. Separation condition were: acetate buffer, XTerra RP8 column, gradient: 0% methanol (0 min), 30% methanol (15 min), 100% methanol (25 min) for the b and d-derivatives, and the TEAP system as described by Schibli et al. (Bioconjugate Chem. 2000, 343-351) for the other compounds.
For biodistribution studies with ^57Co-cyanocobalamin, 0.2 μCi/1 ng of the radiolabeled cyanocobalamin is mixed with 180 μl normal saline and injected i.v. in tumor bearing balb/c mice (syngeneic mouse melanoma B16-F10). After a specified time (5 min to 24 h), animals are sacrificed, the organs weighted and counted on a gamma counter. For biodistribution studies with ^99mTc-labeled cyanocobalamin, 10 μCi/0.5 ng of the radiolabelled cyanocobalamin is mixed with normal saline and used as before. For biodistribution with ^111In-labeled cyanocobalamin, 2 μCi/5 ng of the radiolabeled cyanocobalamin is mixed with normal saline and used as before. To study the effect of Vitamin B12 deficient food, the biodistribution of labeled cyanocobalamin is compared in mice fed with normal food with the biodistribution in mice fed with vitamin B12 deficient food for a period of 2 weeks.

[2] = target: T1, transcobalamin I (TC I; haptocorrin) (Homo sapiens, UniProt P20061); assay: Gel-shift (gel filtration) assay of radiolabeled cyanocobalamin derivatives with transport protein TC I; type: binding; settings: Superdex 75 column; free derivative elutes at 1.5 kDa
T1 construct: As a source of transcobalamin I, saliva of vegetarian human subjects is used; from tissue; host or cells: human saliva (centrifuged, diluted 1:1 with PBS, sterile filtered)
T1 sequence (P20061 24-433): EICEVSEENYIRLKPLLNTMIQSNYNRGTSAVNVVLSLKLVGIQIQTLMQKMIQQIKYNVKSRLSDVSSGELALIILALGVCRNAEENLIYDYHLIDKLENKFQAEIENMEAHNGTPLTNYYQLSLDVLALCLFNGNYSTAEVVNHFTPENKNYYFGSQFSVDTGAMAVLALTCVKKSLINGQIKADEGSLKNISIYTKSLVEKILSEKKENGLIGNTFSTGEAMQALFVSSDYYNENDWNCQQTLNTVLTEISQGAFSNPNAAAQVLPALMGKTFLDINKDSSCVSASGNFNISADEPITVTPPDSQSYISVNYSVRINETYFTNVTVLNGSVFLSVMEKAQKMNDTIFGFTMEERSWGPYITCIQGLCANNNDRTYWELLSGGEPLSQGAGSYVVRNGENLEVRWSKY
Experimental: As a source of transcobalamin I, saliva of vegetarian human subjects is used. Saliva is centrifuged at 20'000 rpm 20 min at 4° C., mixed 1:1 with PBS and sterile filtered. The binding capacity of transcobalamin I is usually 10 ng/ml.
as §1

Substance | Binding to TCII (in words) (transcobalamin II (TCII)) | TC II reactivity (transcobalamin II (TCII)) | Tissue distribution: Blood [1] [%ID/g] | Tissue distribution: Kidney [1] [%ID/g] | Tissue distribution: Tumor [1] [%ID/g] | Tissue distribution: Liver [1] | Accumulation in tumor relative to blood [1] | Accumulation in tumor relative to kidney and liver [1] | Gel filtration peak of the derivative mixed with TCII (transcobalamin II (TCII)) [kDa] | Gel filtration peak of the derivative mixed with TCI [2] [kDa]
Cyanocobalamin-5′-phosphocolamin-His-OMe [Example 25] | bind to TCII | + (they bind to TCII) | 0.18 | 116 | 3.16 | 20.70 |  |  |  | 
Cyanocobalamin-b-butyl-PAMA-OEt [Example 12] | TCII non-binders | − | 0.04 | 1.08 | 6.13 | 0.94 | five times or more than in blood | at least half the amount found in the critical organs kidney and liver |  | 
Cyanocobalamin-b-butyl-PAPAcet [Example 5] | does bind to TCII | + (they bind to TCII) | 2.3 | 14.1 | 7.9 | 9.40 |  |  | 60 | 44
Cyanocobalamin-b-butyl-aminocarboxymethyl-His-OMe [Example 6] | bind to TCII | + (they bind to TCII) |  |  |  |  |  |  |  | 
Cyanocobalamin-b-ethyl-PAMA-OEt [Example 10] | TCII non-binders | − | 0.1 | 1.36 | 0.73 | 1.45 | five times or more than in blood | at least half the amount found in the critical organs kidney and liver |  | 
Cyanocobalamin-b-ethyl-Triamine [Example 22] | TCII non-binders | − | 0.25 | 3.54 | 2.9 | 3.90 | five times or more than in blood | at least half the amount found in the critical organs kidney and liver |  | 
Cyanocobalamin-b-hexyl-PAMA-OEt [Example 14] | bind to TCII | + (they bind to TCII) | 1.2 | 40 | 3 | 8.00 |  |  |  | 
Cyanocobalamin-b-propyl-His-OMe [Example 20] | bind to TCII | + (they bind to TCII) | 2.1 | 19.9 | 9.2 | 21.06 |  |  |  | 
Cyanocobalamin-b-propyl-PAMA-OEt [Example 11] | essentially a TCII-non binder; also recorded: TCII non-binders | − | 0.09 | 0.39 | 1.61 | 0.44 | five times or more than in blood | at least half the amount found in the critical organs kidney and liver | 1.5 | 44
Cyanocobalamin-c-butyl-PAPAcet [Example 8] | bind to TCII | + (they bind to TCII) | 2.2 | 16.5 | 3.6 | 8.10 |  |  |  | 
Cyanocobalamin-d-propyl-PAMA-OEt [Example 18] | TCII non-binders | − | 0.06 | 10.4 | 6.8 | 3.90 | five times or more than in blood | at least half the amount found in the critical organs kidney and liver |  | 
